Measurements published in patent US20260070922A1, “PYRAZOLE AND IMIDAZOLE DERIVATIVES AS DUAL OREXIN AND KAPPA-OPIOID RECEPTORS MODULATORS COMPOSITION, METHODS FOR TREATING NEUROLOGICAL AND PSYCHIATRIC DISORDERS” (HAGER BIOSCIENCES, LLC, priority 2022, published 2026).
pIC50: −log10 of the molar value.

What was measured:
[1] = target: T1, Orexin type 1 (OX1R) receptor (Homo sapiens, UniProt O43613); assay: In vitro orexin antagonism assay: intracellular calcium measurement (FLIPR), orexin-A 3 nM as agonist; type: cell-based; details: for pIC50: first value of IC50/Kb cell; for Kb: second value of IC50/Kb cell; for inhibition at 1 µM: read-out: OX1R, % Inh. @ 1 uM
T1 construct: expressed in transfected cells; host or cells: CHO cells (G418 selection)
T1 sequence (O43613 1-425): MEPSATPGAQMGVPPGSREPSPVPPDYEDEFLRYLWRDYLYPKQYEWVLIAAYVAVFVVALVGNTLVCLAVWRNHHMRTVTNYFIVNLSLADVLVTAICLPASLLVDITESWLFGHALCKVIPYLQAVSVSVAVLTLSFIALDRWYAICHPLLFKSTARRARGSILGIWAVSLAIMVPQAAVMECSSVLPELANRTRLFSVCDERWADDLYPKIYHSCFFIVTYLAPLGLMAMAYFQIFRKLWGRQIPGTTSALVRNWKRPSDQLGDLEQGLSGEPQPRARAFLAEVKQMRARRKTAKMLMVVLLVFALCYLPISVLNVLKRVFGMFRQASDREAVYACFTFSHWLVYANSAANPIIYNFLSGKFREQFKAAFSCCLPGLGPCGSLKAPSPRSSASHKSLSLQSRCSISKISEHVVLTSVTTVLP
Method: (§1) In Vitro Orexin Antagonism Measurement Assay: Intracellular Calcium Measurements:
(§2) Chinese hamster ovary (CHO) cells expressing the human […] and the human orexin-2 receptor, respectively, are grown in culture medium (Ham F-12 with L-Glutamine) containing 300 μg/mL G418, 100 U/mL penicillin, 100 μg/mL streptomycin and 10% heat inactivated fetal calf serum (FCS). The cells are seeded at 20,000 cells/well into 384-well black clear bottom sterile plates (Greiner). The seeded plates are incubated overnight at 37° C. in 5% 002. Human orexin-A as an agonist is prepared as 1 mM stock solution in MeOH: water (1:1), diluted in HBSS containing 0.1% bovine serum albumin (BSA), NaHCO3: 0.375 g/L and 20 mM HEPES for use in the assay at a final concentration of 3 nM.
(§3) Antagonists are prepared as 10 mM stock solution in DMSO, then diluted in 384-well plates using DMSO followed by a transfer of the dilutions into in HBSS containing 0.1% bovine serum albumin (BSA), NaHCO3: 0.375 g/L and 20 mM HEPES. On the day of the assay, 50 μL of staining buffer (HBSS containing 1% FCS, 20 mM HEPES, NaHCO3: 0.375 g/L, 5 mM probenecid (Sigma) and 3 μM of the fluorescent calcium indicator fluo-4 AM (1 mM stock solution in DMSO, containing 10% pluronic) is added to each well. The 384-well cell-plates are incubated for 50 min at 37° C. in 5% CO2 followed by equilibration at RT for 30 min before measurement.
(§4) Within the Fluorescent Imaging Plate Reader (FLIPR Tetra, Molecular Devices), antagonists are added to the plate in a volume of 10 μL/well, incubated for 120 min and finally 10 μL/well of agonist is added. Fluorescence is measured for each well at 1 second intervals, and the height of each fluorescence peak is compared to the height of the fluorescence peak induced by 3 nM orexin-A with vehicle in place of antagonist. The IC50 value (the concentration of compound needed to inhibit 50% of the agonistic response) is determined and may be normalized using the obtained IC50 value of an on-plate reference compound. Optimized conditions were achieved by adjustment of pipetting speed and cell splitting regime. The calculated IC50values may fluctuate depending on the daily cellular assay performance. Fluctuations of this kind are known to those skilled in the art.

[2] = target: T2, human orexin-2 receptor (OX2R) (Homo sapiens, UniProt O43614); assay: as above; type: cell-based; details: for inhibition at 1 µM: read-out: OX2R, % Inh. @ 1 uM
T2 construct: expressed in transfected cells; host or cells: CHO cells (G418 selection)
T2 sequence (O43614 1-444): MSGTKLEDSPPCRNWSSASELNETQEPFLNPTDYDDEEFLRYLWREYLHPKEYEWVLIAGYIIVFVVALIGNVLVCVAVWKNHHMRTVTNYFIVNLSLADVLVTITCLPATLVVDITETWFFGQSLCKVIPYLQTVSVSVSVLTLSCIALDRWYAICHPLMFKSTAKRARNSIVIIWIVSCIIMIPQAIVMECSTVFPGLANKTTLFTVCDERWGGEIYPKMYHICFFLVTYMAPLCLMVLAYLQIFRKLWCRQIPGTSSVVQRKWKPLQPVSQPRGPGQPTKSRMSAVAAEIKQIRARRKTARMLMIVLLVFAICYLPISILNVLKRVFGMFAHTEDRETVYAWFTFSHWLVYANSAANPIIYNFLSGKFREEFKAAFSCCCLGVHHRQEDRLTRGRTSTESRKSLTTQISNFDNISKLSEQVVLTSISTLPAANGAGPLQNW
Method: Antagonistic activities on both orexin receptors have been measured for each example compound using the following procedure:
as §1, §2, §3
as §4, with “art. In the case where IC50values have been determined several times for the same compound, the geometric mean has been given.” for “art.”

| pIC50 [1] | Kb [1] [nM] | inhibition at 1 µM [1] [%] | inhibition at 1 µM [2] [%] | Structure (SMILES) | further results |
| --- | --- | --- | --- | --- | --- |
| 8.00 | 2 | 82.2 | -3 | C[C@@H]1CCCN(C(=O)c2c(-c3ccccc3)nn3ccccc23)[C@@H]1CNc1ncc(F)cn1 [Example 22] |  |
| 6.54 |  |  |  | O=C(c1c(-c2ccccc2)nc2ccccn12)N1CCC[C@H]1COc1ccc(C(F)(F)F)cn1 [Example 18] |  |
|  |  | 19 | 35 | O=C(c1c(-c2ccccc2)nn2c1COCC2)N1CCC[C@H]1Cn1cc(-c2ccc(F)cn2)cn1 [Example 85] |  |
|  |  | 23 | 13.5 | O=C(c1c(-c2ccccc2)nn2ccccc12)N1CCC[C@H]1CNc1ncc(F)cn1 [Example 23] |  |
| 8.40 | 1 | 98.4 | 52.5 | O=C(c1nn2ccccc2c1-c1ccccc1)N1CCC[C@H]1COc1ccc(C(F)(F)F)cn1 [Example 28] |  |
| 6.74 | 38 |  |  | CCc1cnc(NC[C@@H]2CCCN2C(=O)c2c(-c3ccccc3)nn3ccccc23)nc1 [Example 15] |  |
|  | 2 |  |  | C[C@@H]1CCCN(C(=O)c2c(-c3ccccc3)nn3ccccc23)[C@@H]1CNc1ccc(C(F)(F)F)cn1 [Example 6] |  |
| 6.85 |  |  |  | CCc1cnc(NC[C@@H]2[C@H](C)CCCN2C(=O)c2c(-c3ccccc3)nn3c2COCC3)nc1 [Example 5] |  |
| 6.92 |  |  |  | O=C(c1c(-c2ccccc2)nn2c1COCC2)N1CCC[C@H]1CNc1ccc(C(F)(F)F)cn1 [Example 2] |  |

Second part, the molecule before the results:

| Structure (SMILES) | pIC50 [1] | Kb [1] [nM] | inhibition at 1 µM [1] [%] | inhibition at 1 µM [2] [%] | further results |
| --- | --- | --- | --- | --- | --- |
| O=C(c1nn2c(c1-c1ccccn1)COCC2)N1CCC[C@H]1COc1ccc(C(F)(F)F)cn1 [Example 223] | 8.30 | 1 |  |  | OX1R, % Inh. @ 1 uM ([1]; @ 1 uM): 97%; OX2R, % Inh. @ 1 uM ([2]; @ 1 uM): 21% |
| O=C(c1c(-c2ccccc2F)nn2c1COCC2)N1[C@H](Cn2ccc(-c3ccc(F)cn3)n2)C[C@@H]2C[C@@H]21 [Example 108] |  |  | 23 | 17 |  |
| O=C(c1nc2ccccn2c1-c1ccccc1)N1C2CCC1(COc1ccc(C(F)(F)F)cn1)CC2 [Example 160] | 7.62 | 5 | 98 | 2 |  |
| O=C(c1nn2c(c1-c1ccccn1)COCC2)N1CCC[C@H]1Cn1cc(-c2ccccn2)cn1 [Example 213] | 6.66 | 47 | 77 | 33 |  |
| O=C(c1nn2c(c1-c1ccccn1)OCCC2)N1CCC[C@H]1Cc1nc(-c2ccccn2)no1 [Example 199] |  |  | 64 | 8 |  |
| O=C(c1c(-c2ccccc2)nn2c1COCC2)N1CCOC[C@H]1COc1ccc(C(F)(F)F)cn1 [Example 113] |  |  | 12 | 8 |  |
| O=C(c1nc2n(c1-c1ccccn1)CCOC2)N1CCC[C@H]1Cn1ccc(-c2ccccn2)n1 [Example 215] |  |  | 64 | 12 |  |
| O=C(c1c(-c2ccccc2)nc2cc(C(F)(F)F)ccn12)N1CCC[C@H]1Cn1cc(-c2ccccn2)cn1 [Example 79] |  |  | 43 | 62 | pIC50 ([2]; first value of IC50/Kb cell): 7.11; Kb ([2]; second value of IC50/Kb cell): 13 nM |
| O=C(c1nn2cccnc2c1-c1ccccn1)N1CCC[C@H]1COc1ccc(C(F)(F)F)cn1 [Example 190] | 8.30 | 1 | 91 | 28 |  |
| O=C(c1nn2c(c1-c1ccccn1)OCCC2)N1CCC[C@H]1Cn1ccc(-c2ccccn2)n1 [Example 195] | 7.82 | 3 | 100 | 29 |  |
| C[C@@]1(COc2cnc(C(F)(F)F)cn2)CCCN1C(=O)c1nn2cccnc2c1-c1ccccc1 [Example 167] | 6.49 | 69 | 82 | 20 |  |
| C[C@@]1(COc2cnc(C(F)(F)F)cn2)CCCN1C(=O)c1nn2c(c1-c1ccccc1)COCC2 [Example 162] |  |  | 36 | 0 |  |
| O=C(c1c(-c2ccccc2)nc2ccc(F)cn12)N1CC[C@H]1Cn1ccc(-c2ccc(F)cc2)n1 [Example 101] |  |  | 25 | 47 |  |
